Tests used:
[1] = target: T1, H+-ATPase in the plasma membrane of Saccharomyces cerevisiae (Saccharomyces cerevisiae, UniProt P05030); type: cell-based; set-up: endogenous in cells; host or cells: intact S. cerevisiae cells in suspension
Method: The spectrometer 10 comprises two electrochemical cells 11, 12. Cell 11 is a test cell containing a sample of the biological system whose nonlinear dielectric properties are being studied. In this example the biological system comprises a system comprising a suspension of S. cerevisiae. The cell concentration was approximately 50 mg dry wt. ml^-1 in a medium of 20 mM KH2 PO4, 30 mM KCl, 1 mM MgCl2 pH 6.5. Tests were carried out within four hours of preparing the suspension. Cell 12 is a reference cell comprising the supernatant of the test suspension, the conductivity of which was adjusted with distilled water to compensate for the volume fraction of cells present in the sample, to be identical to that of the sample at the frequency of interest. The cells 11, 12 were connected to a sinusoidal oscillator 13, via a Data Translation Analog to Digital converter, to an 80386 microcomputer 14.
The sample cell suspension was pipetted into the electrode cell 11 (FIG. 1), the test waveform applied to the (outer) current electrodes, and the data logged from the (inner) voltage electrodes at a sampling frequency (which was typically at 25 times the frequency of the fundamental) and for a time specified by the operator. Time was specified in terms of a number of blocks, each block consisting of 512 samples. At the end of the time specified, the data were Fourier transformed as follows. […]

[2] = target: vanadate-resistant ATPase of a mutant strain of yeast (Saccharomyces cerevisiae, UniProt P05030); details: mutant strain with vanadate-resistant ATPase
[3] = target: T1, H+-ATPase in the plasma membrane of Saccharomyces cerevisiae; details: cells metabolising added D-glucose
Method: As described above, a 3rd harmonic was reproducibly observed with resting cell suspensions of S. cerevisiae. This could be ascribed to the presence of the H^+ -ATPase in this organism, and should be expected to reflect a situation in which the enzyme was at static head. An experiment to determine how this behaviour might be modified when the enzyme was driven away from static head and was able (or expected) to do work was carried out. Resting cells were taken, their (usual) non-linear dielectric spectrum recorded, and a metabolisable carbon source (D-glucose) added.

T1 sequence (P05030 whole entry): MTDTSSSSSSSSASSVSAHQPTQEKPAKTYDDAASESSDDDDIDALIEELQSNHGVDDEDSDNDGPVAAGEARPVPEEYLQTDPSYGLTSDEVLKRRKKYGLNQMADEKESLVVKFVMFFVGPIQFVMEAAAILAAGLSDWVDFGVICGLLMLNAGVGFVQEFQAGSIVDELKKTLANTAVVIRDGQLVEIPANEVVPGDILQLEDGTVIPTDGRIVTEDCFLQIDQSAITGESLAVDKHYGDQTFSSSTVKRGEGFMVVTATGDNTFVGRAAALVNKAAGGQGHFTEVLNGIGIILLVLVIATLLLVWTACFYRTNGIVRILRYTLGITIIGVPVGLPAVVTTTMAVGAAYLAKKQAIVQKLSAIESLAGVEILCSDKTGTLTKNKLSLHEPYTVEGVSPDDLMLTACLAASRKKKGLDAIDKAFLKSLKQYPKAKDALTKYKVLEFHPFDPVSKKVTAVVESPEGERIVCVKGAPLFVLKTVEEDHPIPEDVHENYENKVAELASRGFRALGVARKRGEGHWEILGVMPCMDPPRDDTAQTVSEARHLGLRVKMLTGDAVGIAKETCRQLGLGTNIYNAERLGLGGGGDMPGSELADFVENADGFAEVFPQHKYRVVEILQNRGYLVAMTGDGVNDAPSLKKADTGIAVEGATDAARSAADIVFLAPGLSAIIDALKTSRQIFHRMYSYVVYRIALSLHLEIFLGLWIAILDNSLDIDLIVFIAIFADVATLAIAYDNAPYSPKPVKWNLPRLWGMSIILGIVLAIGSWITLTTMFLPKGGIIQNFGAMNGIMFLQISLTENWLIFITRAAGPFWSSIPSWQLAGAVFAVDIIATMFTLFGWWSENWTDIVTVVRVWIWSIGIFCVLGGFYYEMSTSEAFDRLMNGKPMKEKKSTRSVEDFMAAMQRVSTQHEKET
vanadate-resistant ATPase of a mutant strain of yeast, sequence (P05030 whole entry, change not shown): as the sequence (P05030 whole entry) above

| Compound | generation of harmonics ([1]; 0.2 pmol/mg dry wt of cells) | generation of harmonics in the presence of vanadate [2] | even (2nd and 4th) harmonics in the presence of vanadate [3] | generation of the 3rd harmonic ([1]; 1 mM sodium metavanadate, FIG. 12) |
| --- | --- | --- | --- | --- |
| C(=NC(c1ccccc1)c1ccccc1)=NC(c1ccccc1)c1ccccc1 [dibenzhydryl carbodiimide] | completely abolished | – | – | – |
| sodium metavanadate | – | vanadate resistant | vanadate-sensitive | essentially completely abolished |

From US5569591A, “Analytical or monitoring apparatus and method” (priority 1990, dated 1996)
